This is an account of results in PMC9457583, “New Chemicals Suppressing SARS-CoV-2 Replication in Cell Culture” (Molecules, 2022).

Data set [1] relates to SARS-CoV-2. In words: microbe, parasite or virus in culture. Type of data set: cell-based.
For data set [2], the system named is SARS-CoV-2. The note with it: SARS-CoV-2-infected Vero E6/TMPRSS2 cells; cited from earlier work.
For another data set, the system named is SARS-CoV-2 Mpro. The note with it: read-out: IC50 (Mpro); cited from earlier work.
Details of data set [3]: method as in PMID 32855413. The note with it: read-out: CC50 (cytotoxicity); cited from earlier work.
In data set [4] the test system is SARS-CoV-2. Further details: method as in PMID 32855413. The note with it: cited from earlier work.
Data set [5] has as its system SARS-CoV-2. Further details: method as in PMID 35287429. The note with it: read-out: EC50 (SARS-CoV-2 replication in cell culture); cited from earlier work.
For data set [6], the system named is SARS-CoV-2. Further details: method as in PMID 34726479. The note with it: Vero E6 cell culture; read-out: EC50 (virus replication); cited from earlier work.
Data set [7] deals with SARS-CoV-2. Further details: method as in PMID 33062953. The note with it: cited from earlier work.
The mark [8] stands for this setting: Severe acute respiratory syndrome coronavirus 2, Vero C1008, Vero E6 cells, MOI 0.1, 96 h, MTT, read-out: EC50.
Setting [9] is: Severe acute respiratory syndrome coronavirus 2, Vero C1008, 96 h.

Read-outs that look alike come from different tables or passages of the source. Peptide text beside a SMILES is read from it. * marks the point of attachment. Cbz = O=C(OCc1ccccc1)* Some results are limits rather than exact numbers.

Take `Cc1cc2c(cc1C)N(C(=O)COc1ccc3ccccc3c1)C(C)(C)c1ssc(=S)c1-2` [Compound 3a]: the melting point fell in the range of 189 to 190 °C. For the same molecule, in the data set with SARS-CoV-2 [1] (setting [8]), the EC50 was found to be 510 ± 410 nM.

Regarding `Cc1ccc2c(c1)N(C(=O)COc1ccc3ccccc3c1)C(C)(C)c1ssc(=S)c1-2` [Compound 3b], the melting point was above 144 °C. Besides, the EC50 in the data set with SARS-CoV-2 [1] (setting [8]) was found to be 1160 ± 230 nM. In the case of `Cc1ccc2c(c1)-c1c(ssc1=S)C(C)(C)N2C(=O)COc1ccc2ccccc2c1` [Compound 3c], the melting point is 153 to 154 °C. The EC50 in the data set on SARS-CoV-2 [1] (setting [8]) was found to be 2710 ± 910 nM. Molecule `COc1ccc2c(c1)-c1c(ssc1=S)C(C)(C)N2C(=O)COc1ccc2ccccc2c1` [Compound 3d] gave a melting point of 136 to 137 °C. For the same molecule, the EC50 with SARS-CoV-2 [1] (setting [8]) came out at 9400 ± 1670 nM. Consider `Clc1ccc2nc(OCc3ccccc3Cl)c(N3CCOCC3)c(-c3ccccc3)c2c1` [Compound 6a, 6-chloro-2-[(2-chlorobenzyl)oxy]-3-(morpholin-4-yl)-4-phenylquinoline], for which the EC50 in the data set on SARS-CoV-2 [1] (setting [8]) came to 4770 ± 1870 nM. Consider `O=c1[nH]c2ccc(Cl)cc2c(-c2ccccc2)c1SC(=S)N1CCCCC1` [Compound 6b, 6-chloro-2-oxo-4-phenyl-1,2-dihydroquinolin-3-yl piperidine-1-carboditioate], for which the midpoint of the response in the data set on SARS-CoV-2 [1] (setting [9]), the EC50, lay at 7620 ± 1840 nM. Molecule `CC1CCCCN1C(=S)Sc1c(-c2ccccc2)c2cc(Cl)ccc2[nH]c1=O` (stereo not drawn) [Compound 6c, 6-chloro-2-oxo-4-phenyl-1,2-dihydroquinolin-3-yl 2-methylpiperidine-1-carboditioate] yielded a melting point of 265 to 266 °C. Besides, in the data set with SARS-CoV-2 [1] (setting [9]), the EC50 was determined as 22400 ± 2580 nM.

The molecule `c1ccc2cc(Nc3nc(Nc4ccc5ccccc5c4)nc(N4CCCCCC4)n3)ccc2c1` [Compound 9a, 6-(azepan-1-yl)-N,N ^′ -di(naphthalen-2-yl)-1,3,5-triazine-2,4-diamine] showed a melting point of 164 to 165 °C. The EC50 in the data set on SARS-CoV-2 [1] (setting [8]) was determined as 18200 ± 4200 nM. In turn, `c1ccc(Nc2nc(Nc3ccccc3)nc(N3CCCCCC3)n2)cc1` [Compound 9b, 6-(azepan-1-yl)-N,N’-diphenyl-1,3,5-triazine-2,4-diamine] displayed a melting point of 160 to 161 °C. For the same molecule, the EC50 in the data set on SARS-CoV-2 [1] (setting [8]) was found to be 1040 ± 260 nM.

Consider `CN1CCN(c2nc(Nc3cccc4ccccc34)nc(Nc3cccc4ccccc34)n2)CC1` [Compound 9c, 6-(4-methylpiperazin-1-yl)-N,N ^′ -di(naphthalen-1-yl)-1,3,5-triazine-2,4-amine], for which the melting point fell in the range of 160 to 161 °C. Besides, the EC50 with SARS-CoV-2 [1] (setting [8]) came out at 19600 ± 2940 nM.

`Cn1cnc(Cn2c(=O)[nH]/c(=N\c3cc4cn(C)nc4cc3Cl)n(Cc3cc(F)c(F)cc3F)c2=O)n1` [Compound S-217622]: in the data set on SARS-CoV-2 [2], the EC50 was 370 nM. In the case of `CC(C)C[C@H](NC(=O)OCc1ccccc1)C(=O)N[C@H](C=O)CC1CCNC1=O` (stereo partly drawn) [GC–373], the IC50 in the data set on SARS-CoV-2 Mpro is […]. Further, the CC50 in data set [3] is above 200000 nM. Besides, the EC50 in the data set with SARS-CoV-2 [4] was around 1000 nM. Turning to `CC(C)C[C@H](NC(=O)OCc1ccccc1)C(=O)N[C@@H](CC1CCNC1=O)C(O)S(=O)(=O)O` (stereo partly drawn) [GC–376], in the data set on SARS-CoV-2 Mpro, the IC50 is around 300 nM. In addition, the CC50 in data set [3] is above 200000 nM. Besides, the EC50 in the data set with SARS-CoV-2 [4] is around 1000 nM. For the molecule `CC(C)C[C@@H](C=O)NC(=O)[C@H](CC(C)C)NC(=O)[C@H](CC(C)C)NC(=O)OCc1ccccc1` [MG–132] (Cbz-Leu-Leu-Leu-aldehyde), the EC50 in the data set with SARS-CoV-2 [5] is 100 nM.

Consider `CC(C)(C)[C@H](NC(=O)C(F)(F)F)C(=O)N1C[C@H]2[C@@H]([C@H]1C(=O)N[C@H](C#N)C[C@@H]1CCNC1=O)C2(C)C` [PF-07321332, nirmatrelvir], for which, in the data set with SARS-CoV-2 [6], the concentration for a half-maximal effect (EC50) was 85.3 nM. Turning to `Cn1nc(-c2ccc(C(F)(F)F)cc2)nc2c(=O)n(C)c(=O)nc1-2` [Valrycin B], the “EC50 (virus replication in cell culture)” value with SARS-CoV-2 [7] is given as “submicromolar”. Turning to `CC(NC(=O)C(Cc1ccccc1)NC(=O)OCc1ccccc1)C(=O)F` (stereo not drawn) [Z-FA-FMK], the “EC50 (virus replication in cell culture)” value in the data set with SARS-CoV-2 [7] was “submicromolar”. Turning to `CCC(CC)COC(=O)[C@H](C)N[P@](=O)(OC[C@H]1O[C@@](C#N)(c2ccc3c(N)ncnn23)[C@H](O)[C@@H]1O)Oc1ccccc1` [remdesivir, reference compound], in the data set on SARS-CoV-2 [1] (setting [8]), the EC50 was found to be 2940 ± 670 nM.

Usually EC50 stands for the midpoint of the concentration-response curve. Broadly, the melting point is the temperature of the solid-liquid transition. Broadly, the IC50 is the concentration that inhibits the measured activity by half. For orientation: CC50 means the concentration at which the toxic effect on the cells reaches its halfway point.
